This is an account of results in ChEMBL document CHEMBL1773002, “Development of imidazole alkanoic acids as mGAT3 selective GABA uptake inhibitors” (Eur J Med Chem, 2011).

One assay can be described thus: cells. It is filed as cell-based. The note with it: HEK293, 3 h.
The target of assay [1] is Sodium- and chloride-dependent GABA transporter 1 (Mus musculus) (UniProt P31648). Nature of the assay: Inhibition of mouse GAT1-mediated [3H]GABA uptake expressed in human HEK cells assessed as specific binding remaining at 1 mM. The note with it: HEK293. It is filed as cell-based.
Assay [2] has as its system HEK293. Nature of the assay: Inhibition of mouse GAT4-mediated [3H]GABA uptake expressed in human HEK cells assessed as specific binding remaining at 1 mM. It counts as cell-based.
The target in assay [3] is Sodium- and chloride-dependent GABA transporter 1 (Mus musculus, UniProt P31648). It counts as cell-based, HEK293.
In assay [4] the test system is HEK293. Nature of the assay: Inhibition of mouse GAT4-mediated [3H]GABA uptake expressed in human HEK cells assessed as specific binding remaining at 100 µM.
For assay [5], the target named is T1, GABA transporter 4 (Mus musculus) (UniProt P31650).
T1 sequence (whole entry): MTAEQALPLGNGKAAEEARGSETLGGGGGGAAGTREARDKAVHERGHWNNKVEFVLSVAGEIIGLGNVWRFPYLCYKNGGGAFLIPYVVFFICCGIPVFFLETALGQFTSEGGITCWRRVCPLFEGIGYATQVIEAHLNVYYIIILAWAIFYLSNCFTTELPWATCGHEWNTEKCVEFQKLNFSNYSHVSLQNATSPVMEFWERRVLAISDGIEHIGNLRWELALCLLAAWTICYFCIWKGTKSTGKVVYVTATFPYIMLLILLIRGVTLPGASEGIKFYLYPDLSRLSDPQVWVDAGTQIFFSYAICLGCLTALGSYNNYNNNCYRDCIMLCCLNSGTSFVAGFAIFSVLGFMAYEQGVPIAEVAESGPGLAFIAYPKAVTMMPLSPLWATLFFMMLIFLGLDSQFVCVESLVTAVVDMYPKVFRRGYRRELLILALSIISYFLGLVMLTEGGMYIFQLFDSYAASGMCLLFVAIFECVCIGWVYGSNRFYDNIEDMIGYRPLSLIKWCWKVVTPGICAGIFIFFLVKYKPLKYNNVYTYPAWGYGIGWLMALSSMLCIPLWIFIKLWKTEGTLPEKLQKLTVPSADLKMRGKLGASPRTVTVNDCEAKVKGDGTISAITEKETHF
Nature of the assay: Inhibition of mouse GAT3-mediated [3H]GABA uptake expressed in human HEK cells assessed as specific binding remaining at 100 µM. The note with it: HEK293.

Assay [6] concerns the target Sodium- and chloride-dependent GABA transporter 1 (Mus musculus) (UniProt P31648). Kind of assay: Inhibition of mouse GAT1-mediated [3H]GABA uptake expressed in human HEK cells assessed as specific binding remaining at 100 µM. The following applies: HEK293.
The target in assay [7] is T2, GABA transporter 3 (Mus musculus) (UniProt P31649).
T2 sequence (whole entry): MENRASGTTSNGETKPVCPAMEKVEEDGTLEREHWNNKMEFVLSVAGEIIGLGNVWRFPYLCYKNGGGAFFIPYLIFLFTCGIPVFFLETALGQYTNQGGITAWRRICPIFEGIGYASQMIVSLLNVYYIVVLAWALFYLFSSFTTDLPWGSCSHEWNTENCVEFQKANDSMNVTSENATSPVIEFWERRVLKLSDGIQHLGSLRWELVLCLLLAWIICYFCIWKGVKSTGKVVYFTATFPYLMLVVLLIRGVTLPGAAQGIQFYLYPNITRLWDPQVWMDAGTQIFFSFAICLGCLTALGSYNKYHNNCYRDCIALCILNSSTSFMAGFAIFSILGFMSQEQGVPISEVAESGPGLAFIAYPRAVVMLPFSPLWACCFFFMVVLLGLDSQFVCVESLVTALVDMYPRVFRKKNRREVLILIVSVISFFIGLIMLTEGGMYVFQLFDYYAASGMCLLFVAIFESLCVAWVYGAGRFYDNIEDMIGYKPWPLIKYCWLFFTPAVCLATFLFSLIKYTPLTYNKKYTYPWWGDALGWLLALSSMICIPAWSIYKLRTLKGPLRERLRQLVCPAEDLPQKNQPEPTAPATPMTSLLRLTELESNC
Nature of the assay: Inhibition of mouse GAT2-mediated [3H]GABA uptake expressed in human HEK cells assessed as specific binding remaining at 100 µM. The note with it: HEK293.

In the case of `O=C(O)CCc1c[nH]cn1`, the IC50 in “cells” (read-out: pIC50 (converted)) is 81.3 µM. For the same compound, the Activity in assay [1] came out at 61.7%.

Take `NCC(=O)O` [GLYCINE]: the IC50 in “cells” (read-out: pIC50 (converted)) is 3090 µM.

Consider `O=C(O)CCCCCCCn1ccnc1`, for which the Activity is 58.6% with HEK293 [2] and 68.3% in assay [1].

For the compound `O=C(O)Cc1c[nH]cn1` [IMIDAZOLE ACETIC ACID], the IC50 is 46.8 µM in the assay “cells” (read-out: pIC50 (converted)) and 617 µM in assay [3] (read-out: pIC50 (converted)).

For the compound `O=C(O)c1ncc[nH]1`, the Activity with HEK293 [2] is 98.6%.

`NCCCCC(=O)O` [5-AMINOVALERIC ACID]: the IC50 in “cells” (read-out: pIC50 (converted)) is 501 µM.

Regarding `O=C(O)CCCCn1ccnc1`, the IC50 in the assay “cells” (read-out: pIC50 (converted)) was 224 µM; in assay [3] (read-out: pIC50 (converted)) it was 115 µM.

Take `O=C(O)Cc1ncc[nH]1`: the Activity in the assay on HEK293 [2] is 63.4%; in assay [1] it was 75.3%.

With `O=C(O)C1CCCc2[nH]cnc21` (stereo unspecified), the Activity in the assay with HEK293 [2] worked out at 81.6%; in assay [1], 59%.

In the case of `Cc1ccsc1C(=CCCN(C)C1CCCc2onc(O)c21)c1sccc1C` (stereo unspecified), the IC50 was greater than 300 µM in the assay “cells” (read-out: IC50) and 4 µM in assay [3] (read-out: IC50).

Regarding `O=C(O)CCCCc1ncc[nH]1`, the IC50 in “cells” (read-out: pIC50 (converted)) was 437 µM; in assay [3] (read-out: pIC50 (converted)), 724 µM.

As for `COc1ccc(C(OCCN2CCC[C@H](C(=O)O)C2)(c2ccc(OC)cc2)c2ccc(OC)cc2)cc1`, the IC50 in “cells” (read-out: IC50) came to 3 µM.

As for `NCCC(=O)O` [BETA-ALANINE], the IC50 is 34.7 µM in the assay “cells” (read-out: pIC50 (converted)) and 2570 µM in assay [3] (read-out: pIC50 (converted)).

Regarding `O=C(O)/C=C\c1ncc[nH]1`, the Activity with HEK293 [2] came to 93.6%; in assay [1], 102%.

As for `O=C(O)c1c[nH]cn1`, the Activity worked out at 85.5% with HEK293 [2] and 90.8% in assay [1].

Regarding `NCCCCCC(=O)O`, the Activity with HEK293 [2] turned out to be 65.1%.

Take `O=C(O)c1ccc2[nH]cnc2c1`: the Activity in the assay on HEK293 [4] amounted to 67.8%; in assay [5], 103%; in assay [6], 108%; in assay [7], 74.2%.

Regarding `O=C(O)/C=C/c1ncc[nH]1`, the Activity in the assay with HEK293 [2] stood at 47.2%; in assay [1] it was 73.3%.

With `O=C(O)C1CCc2[nH]cnc2C1` (stereo unspecified), the Activity with HEK293 [2] turned out to be 82.4%; in assay [1], 85%.

Turning to `O=C(O)CCCc1ncc[nH]1`, in “cells” (read-out: pIC50 (converted)), the IC50 is 513 µM. In assay [1], the Activity stood at 62.3%.

Take `O=C(O)CCc1ncc[nH]1`: the IC50 in “cells” (read-out: pIC50 (converted)) is 309 µM. The Activity in assay [1] was determined as 62.8%.

For the compound `O=C(O)CCCn1ccnc1`, the IC50 is 38 µM in “cells” (read-out: pIC50 (converted)) and 117 µM in assay [3] (read-out: pIC50 (converted)).

As to `COc1ccc(C2(O)CCN(CCCn3c4ccccc4c4ccccc43)CC2)cc1`, the IC50 in “cells” (read-out: IC50) was 15 µM; in assay [3] (read-out: IC50), 19 µM.

For `O=C(O)CCn1ccnc1`, in the assay “cells” (read-out: pIC50 (converted)), the IC50 was 191 µM. The Activity in assay [1] came out at 72%.

Regarding `O=C(O)CCCc1c[nH]cn1`, the IC50 in “cells” (read-out: pIC50 (converted)) was 52.5 µM; in assay [3] (read-out: pIC50 (converted)), 417 µM.

As to `O=C(O)CCCCCn1ccnc1`, the IC50 in the assay “cells” (read-out: pIC50 (converted)) is 234 µM; in assay [3] (read-out: pIC50 (converted)) it was 1020 µM.

For `O=C(O)CCCCc1c[nH]cn1`, the IC50 in assay [3] (read-out: pIC50 (converted)) was 417 µM. Moreover, the Activity in the assay with HEK293 [2] was 64.7%.

In the case of `NCCCCCCC(=O)O`, the Activity in the assay on HEK293 [2] was 84.3%.

Take `O=C(O)c1cccc2[nH]cnc12`: the Activity with HEK293 [4] was found to be 68.2%; in assay [5], 78.2%; in assay [6] it was 95.9%; in assay [7], 94.2%.

As to `O=C(O)/C=C/CCc1ncc[nH]1`, the IC50 in the assay “cells” (read-out: pIC50 (converted)) is 309 µM; in assay [3] (read-out: pIC50 (converted)), 324 µM.

`O=C(O)CCCCCCn1ccnc1`: the IC50 in assay [3] (read-out: pIC50 (converted)) is 676 µM. The Activity with HEK293 [2] came out at 71.1%.

Take `O=C(O)Cn1ccnc1`: in “cells” (read-out: pIC50 (converted)), the IC50 was 617 µM. Besides, in assay [1], the Activity was 73.3%.

With `O=C(O)/C=C/c1c[nH]cn1`, the Activity in the assay on HEK293 [2] came to 95.8%; in assay [1] it was 54.8%.

As for `O=C(O)/C=C/CCc1c[nH]cn1`, the values for the IC50 (in “cells” (read-out: pIC50 (converted)); in assay [3] (read-out: pIC50 (converted))) were 209 µM and 123 µM, respectively.
